Reference: ChEMBL document CHEMBL1154047, “Chiral gossypol derivatives: evaluation of their anticancer activity and molecular modeling” (Eur J Med Chem, 2009)
pIC50: −log10 of the molar value. Values joined by “and” are separate entries in the source; they are usually repeats but may differ in a detail not shown here. Identical values can stand only once.

How the values were obtained:
HeLa [1] = experiment: Anticancer activity against human HeLa cells after 48 hrs by MTT assay; assay type: functional, cell-based
[2] = Anticancer activity against human U87 cells after 48 hrs by MTT assay; assay type: functional, cell-based, U-87MG ATCC
[3] = Anticancer activity against human M85 cells after 48 hrs by MTT assay; assay type: functional, cell-based
HeLa [4] = experiment: Ratio of compound IC50 to (-)-gossypol IC50 for human HeLa cells; assay type: functional
[5] = Ratio of compound IC50 to (-)-gossypol IC50 for human U87 cells; assay type: functional, U-87MG ATCC
[6] = Ratio of compound IC50 to (-)-gossypol IC50 for human M85 cells; assay type: functional
HeLa [7] = experiment: Ratio of compound IC50 to cisplatin IC50 for human HeLa cells; assay type: functional
[8] = Ratio of compound IC50 to cisplatin IC50 for human U87 cells; assay type: functional, U-87MG ATCC
[9] = Ratio of compound IC50 to cisplatin IC50 for human M85 cells; assay type: functional

Compound: Cc1cc2c(c(O)c1-c1c(C)cc3c(c1O)/C(=C/NCCCO)C(=O)C(O)=C3C(C)C)/C(=C/NCCCO)C(=O)C(O)=C2C(C)C (stereo in doubt; 4a)
- pIC50 (HeLa [1]; Homo sapiens, HeLa, 48 h): 4.97
- pIC50 ([2]; u-87mg atcc): 4.54
- pIC50 ([3]; m85): 4.68
- Ratio IC50 (HeLa [4]): 0.6
- Ratio IC50 [5]: 0.96
- Ratio IC50 [6]: 1.15
- Ratio IC50 (HeLa [7]): 0.85
- Ratio IC50 [8]: 1.7
- Ratio IC50 [9]: 1.42

Compound: COC(=O)[C@H](Cc1ccccc1)N/C=C1\C(=O)C(O)=C(C(C)C)c2cc(C)c(-c3c(C)cc4c(c3O)/C(=C/N[C@@H](Cc3ccccc3)C(=O)OC)C(=O)C(O)=C4C(C)C)c(O)c21 (stereo in doubt; 7a)
- pIC50 (HeLa [1]; Homo sapiens, HeLa, 48 h): < 4.10
- pIC50 ([2]; Homo sapiens, U-87 MG, 48 h): < 4.10
- pIC50 ([3]; Homo sapiens, M85, 48 h): < 4.10

Compound: COc1c(OC)c2c3c(c(-c4c(C)cc5c(C(C)C)c(OC)c(OC)c6c5c4OC6OC)c(C)cc3c1C(C)C)OC2OC (stereo not drawn) [(-)-GOSSYPOL HEXAMETHYL ETHER]
- pIC50 (HeLa [1]; Homo sapiens, HeLa, 48 h): < 4.10
- pIC50 ([2]; Homo sapiens, U-87 MG, 48 h): < 4.10
- pIC50 ([3]; Homo sapiens, M85, 48 h): < 4.10

Compound: Cc1cc2c(c(O)c1-c1c(C)cc3c(c1O)/C(=C/NC1CC1)C(=O)C(O)=C3C(C)C)/C(=C/NC1CC1)C(=O)C(O)=C2C(C)C (stereo in doubt; 5b)
- pIC50 (HeLa [1]; hela): 4.87
- pIC50 ([2]; u-87mg atcc): 4.49
- pIC50 ([3]; m85): 4.76
- Ratio IC50 (HeLa [4]): 0.76
- Ratio IC50 [5]: 1.07
- Ratio IC50 (HeLa [7]): 1.07
- Ratio IC50 [8]: 1.89

Compound: COC(=O)[C@H](Cc1c[nH]c2ccccc12)N/C=C1\C(=O)C(O)=C(C(C)C)c2cc(C)c(-c3c(C)cc4c(c3O)/C(=C/N[C@@H](Cc3c[nH]c5ccccc35)C(=O)OC)C(=O)C(O)=C4C(C)C)c(O)c21 (stereo in doubt; 9a)
- pIC50 (HeLa [1]; Homo sapiens, HeLa, 48 h): < 4.10
- pIC50 ([2]; Homo sapiens, U-87 MG, 48 h): < 4.10
- pIC50 ([3]; Homo sapiens, M85, 48 h): < 4.10

Compound: Cc1cc2c(C(C)C)c(O)c(O)cc2c(O)c1-c1c(C)cc2c(C(C)C)c(O)c(O)cc2c1O [APOGOSSYPOL]
- pIC50 (HeLa [1]; Homo sapiens, HeLa, 48 h): 4.59
- pIC50 (HeLa [1]; hela): 4.85
- pIC50 ([2]; Homo sapiens, U-87 MG, 48 h): 4.45
- pIC50 ([2]; u-87mg atcc): 4.55
- pIC50 ([3]; Homo sapiens, M85, 48 h): < 4.10
- pIC50 ([3]; m85): 4.21
- Ratio IC50 (HeLa [4]): 1.43 and 0.79
- Ratio IC50 [5]: 1.17 and 0.94
- Ratio IC50 [6]: 3.33
- Ratio IC50 (HeLa [7]): 2.02 and 1.12
- Ratio IC50 [8]: 2.08 and 1.67
- Ratio IC50 [9]: 4.11

Compound: COC(=O)[C@H](Cc1ccc(O)cc1)N/C=C1\C(=O)C(O)=C(C(C)C)c2cc(C)c(-c3c(C)cc4c(c3O)/C(=C/N[C@@H](Cc3ccc(O)cc3)C(=O)OC)C(=O)C(O)=C4C(C)C)c(O)c21 (stereo in doubt; 8b)
- pIC50 (HeLa [1]; hela): 4.94
- pIC50 ([2]; u-87mg atcc): 4.84
- pIC50 ([3]; m85): 4.79
- Ratio IC50 (HeLa [4]): 0.64
- Ratio IC50 [5]: 0.48
- Ratio IC50 [6]: 0.89
- Ratio IC50 (HeLa [7]): 0.9
- Ratio IC50 [8]: 0.85
- Ratio IC50 [9]: 1.09

Compound: COC(=O)[C@H](Cc1c[nH]c2ccccc12)N/C=C1\C(=O)C(O)=C(C(C)C)c2cc(C)c(-c3c(C)cc4c(c3O)/C(=C/N[C@@H](Cc3c[nH]c5ccccc35)C(=O)OC)C(=O)C(O)=C4C(C)C)c(O)c21 (stereo in doubt; 9b)
- pIC50 ([3]; m85): 4.28
- Ratio IC50 [6]: 2.84
- Ratio IC50 [9]: 3.51

Compound: Cc1cc2c(c(O)c1-c1c(C)cc3c(c1O)/C(=C/NCCCO)C(=O)C(O)=C3C(C)C)/C(=C/NCCCO)C(=O)C(O)=C2C(C)C (stereo in doubt; 4b)
- pIC50 (HeLa [1]; hela): 4.90
- pIC50 ([2]; u-87mg atcc): 4.92
- pIC50 ([3]; m85): 5.27
- Ratio IC50 (HeLa [4]): 0.7
- Ratio IC50 [5]: 0.4
- Ratio IC50 [6]: 0.29
- Ratio IC50 (HeLa [7]): 0.99
- Ratio IC50 [8]: 0.71
- Ratio IC50 [9]: 0.36

Compound: Cc1cc2c(C(C)C)c(O)c(O)c(C=O)c2c(O)c1-c1c(C)cc2c(C(C)C)c(O)c(O)c(C=O)c2c1O [GOSSYPOL]
- pIC50 (HeLa [1]; Homo sapiens, HeLa, 48 h): 4.75
- pIC50 (HeLa [1]; hela): 4.50
- pIC50 ([2]; Homo sapiens, U-87 MG, 48 h): 4.52
- pIC50 ([2]; u-87mg atcc): 4.22
- pIC50 ([3]; m85): 4.74 and 4.40
- Ratio IC50 (HeLa [4]): 1 and 1.76
- Ratio IC50 [5]: 1 and 1.97
- Ratio IC50 [6]: 1 and 2.16
- Ratio IC50 (HeLa [7]): 1.41 and 2.48
- Ratio IC50 [8]: 1.77 and 3.49
- Ratio IC50 [9]: 1.23 and 2.66

Compound: COC(=O)[C@H](Cc1ccccc1)N/C=C1\C(=O)C(O)=C(C(C)C)c2cc(C)c(-c3c(C)cc4c(c3O)/C(=C/N[C@@H](Cc3ccccc3)C(=O)OC)C(=O)C(O)=C4C(C)C)c(O)c21 (stereo in doubt; 7b)
- pIC50 (HeLa [1]; hela): 4.16
- pIC50 ([3]; m85): 4.19
- Ratio IC50 (HeLa [4]): 3.88
- Ratio IC50 [6]: 3.5
- Ratio IC50 (HeLa [7]): 5.48
- Ratio IC50 [9]: 4.32

Compound: Cc1cc2c(c(O)c1-c1c(C)cc3c(c1O)/C(=C/N[C@H](CO)[C@H](O)c1ccc([N+](=O)[O-])cc1)C(=O)C(O)=C3C(C)C)/C(=C/N[C@H](CO)[C@H](O)c1ccc([N+](=O)[O-])cc1)C(=O)C(O)=C2C(C)C (stereo in doubt; 1a)
- pIC50 (HeLa [1]; hela): 4.71
- pIC50 ([2]; u-87mg atcc): 4.51
- pIC50 ([3]; m85): 4.72
- Ratio IC50 (HeLa [4]): 1.1
- Ratio IC50 [5]: 1.01
- Ratio IC50 [6]: 1.03
- Ratio IC50 (HeLa [7]): 1.56
- Ratio IC50 [8]: 1.79
- Ratio IC50 [9]: 1.28

Compound: Cc1cc2c(c(O)c1-c1c(C)cc3c(c1O)/C(=C/N[C@H](CO)[C@H](O)c1ccc([N+](=O)[O-])cc1)C(=O)C(O)=C3C(C)C)/C(=C/N[C@H](CO)[C@H](O)c1ccc([N+](=O)[O-])cc1)C(=O)C(O)=C2C(C)C (stereo in doubt; 1b)
- pIC50 (HeLa [1]; hela): 5.06
- pIC50 ([2]; u-87mg atcc): 4.88
- pIC50 ([3]; m85): > 5.60
- Ratio IC50 (HeLa [4]): 0.49
- Ratio IC50 [5]: 0.44
- Ratio IC50 [6]: <0.14
- Ratio IC50 (HeLa [7]): 0.69
- Ratio IC50 [8]: 0.78
- Ratio IC50 [9]: <0.17

Compound: Cc1cc2c(c(O)c1-c1c(C)cc3c(c1O)/C(=C/N[C@H](CO)Cc1ccccc1)C(=O)C(O)=C3C(C)C)/C(=C/N[C@H](CO)Cc1ccccc1)C(=O)C(O)=C2C(C)C (stereo in doubt; 2a)
- pIC50 (HeLa [1]; Homo sapiens, HeLa, 48 h): 4.58
- pIC50 ([2]; Homo sapiens, U-87 MG, 48 h): 4.53
- pIC50 ([3]; Homo sapiens, M85, 48 h): 4.67
- Ratio IC50 (HeLa [4]): 1.49
- Ratio IC50 [5]: 0.98
- Ratio IC50 [6]: 1.17
- Ratio IC50 (HeLa [7]): 2.1
- Ratio IC50 [8]: 1.73
- Ratio IC50 [9]: 1.44

Compound: Cc1cc2c(c(O)c1-c1c(C)cc3c(c1O)/C(=C/NC(C)C)C(=O)C(O)=C3C(C)C)/C(=C/NC(C)C)C(=O)C(O)=C2C(C)C (stereo in doubt; 10b)
- pIC50 (HeLa [1]; hela): 4.77
- pIC50 ([2]; u-87mg atcc): 4.61
- pIC50 ([3]; m85): 4.52
- Ratio IC50 (HeLa [4]): 0.96
- Ratio IC50 [5]: 0.81
- Ratio IC50 [6]: 1.66
- Ratio IC50 (HeLa [7]): 1.36
- Ratio IC50 [8]: 1.43
- Ratio IC50 [9]: 2.04

Compound: Cc1cc2c(c(O)c1-c1c(C)cc3c(c1O)/C(=C/Nc1ccc(Br)cc1)C(=O)C(O)=C3C(C)C)/C(=C/Nc1ccc(Br)cc1)C(=O)C(O)=C2C(C)C (stereo in doubt; 6a)
- pIC50 (HeLa [1]; Homo sapiens, HeLa, 48 h): 4.13
- pIC50 ([2]; Homo sapiens, U-87 MG, 48 h): < 4.10
- pIC50 ([3]; Homo sapiens, M85, 48 h): < 4.10
- Ratio IC50 (HeLa [4]): 4.14
- Ratio IC50 (HeLa [7]): 5.85

Compound: Cc1cc2c(c(O)c1-c1c(C)cc3c(c1O)/C(=C/NC1CC1)C(=O)C(O)=C3C(C)C)/C(=C/NC1CC1)C(=O)C(O)=C2C(C)C (stereo in doubt; 5a)
- pIC50 (HeLa [1]; hela): 4.25
- pIC50 ([2]; u-87mg atcc): < 4.10
- pIC50 ([3]; Homo sapiens, M85, 48 h): 4.76
- Ratio IC50 (HeLa [4]): 3.14
- Ratio IC50 [6]: 0.95
- Ratio IC50 (HeLa [7]): 4.44
- Ratio IC50 [9]: 1.17

Compound: Cc1cc2c(c(O)c1-c1c(C)cc3c(c1O)/C(=C/NCCc1ccccc1)C(=O)C(O)=C3C(C)C)/C(=C/NCCc1ccccc1)C(=O)C(O)=C2C(C)C (stereo in doubt; 3a)
- pIC50 (HeLa [1]; Homo sapiens, HeLa, 48 h): 4.29
- pIC50 ([2]; Homo sapiens, U-87 MG, 48 h): < 4.10
- pIC50 ([3]; Homo sapiens, M85, 48 h): < 4.10
- Ratio IC50 (HeLa [4]): 2.91
- Ratio IC50 (HeLa [7]): 4.11

Compound: Cc1cc2c(c(O)c1-c1c(C)cc3c(c1O)/C(=C/NCCc1ccccc1)C(=O)C(O)=C3C(C)C)/C(=C/NCCc1ccccc1)C(=O)C(O)=C2C(C)C (stereo in doubt; 3b)
- pIC50 (HeLa [1]; hela): 4.40
- Ratio IC50 (HeLa [4]): 2.24
- Ratio IC50 (HeLa [7]): 3.17

Compound: Cc1cc2c(c(O)c1-c1c(C)cc3c(c1O)/C(=C/Nc1ccc(Br)cc1)C(=O)C(O)=C3C(C)C)/C(=C/Nc1ccc(Br)cc1)C(=O)C(O)=C2C(C)C (stereo in doubt; 6b)
- pIC50 (HeLa [1]; hela): 4.31
- pIC50 ([3]; m85): 4.11
- Ratio IC50 (HeLa [4]): 2.76
- Ratio IC50 [6]: 4.26
- Ratio IC50 (HeLa [7]): 3.9
- Ratio IC50 [9]: 5.26
